System: not given
Assay: not given
Conditions: in vivo; cited from earlier work
For `NCC1(CC(=O)O)CCCCC1` [Gabapentin], the “patients in whom the drug works” value is given as 60%.

Biological target: T1, NaV1.3 (Homo sapiens, UniProt Q9NY46)
Assay: Activity against NaV 1.3 channel (optical membrane potential assay, electrical stimulation)
Type: cell-based
Parameters: expressed in transfected cells; host or cells: HEK293
Conditions: not given
Method: Compounds of the invention are useful as antagonists of voltage-gated sodium ion channels. Antagonist properties of test compounds were assessed as follows. Cells expressing the NaV of interest were placed into microtiter plates. After an incubation period, the cells were stained with fluorescent dyes sensitive to the transmembrane potential. The test compounds were added to the microtiter plate. The cells were stimulated with either a chemical or electrical means to evoke a NaV dependent membrane potential change from unblocked channels, which was detected and measured with trans-membrane potential-sensitive dyes. Antagonists were detected as a decreased membrane potential response to the stimulus. The optical membrane potential assay utilized voltage-sensitive FRET sensors described by Gonzalez and Tsien (See, Gonzalez, J. E. and R. Y. Tsien (1995) “Voltage sensing by fluorescence resonance energy transfer in single cells” Biophys J 69(4): 1272-80, and Gonzalez, J. E. and R. Y. Tsien (1997) “Improved indicators of cell membrane potential that use fluorescence resonance energy transfer” Chem Biol 4(4): 269-77) in combination with instrumentation for measuring fluorescence changes such as the Voltage/Ion Probe Reader (VIPR®) (See, Gonzalez, J. E., K. Oades, et al. (1999) “Cell-based assays and instrumentation for screening ion-channel targets” Drug Discov Today 4(9): 431-439).
The following is an example of how NaV1.3 inhibition activity is measured using the optical membrane potential method#2. Other subtypes are performed in an analogous mode in a cell line expressing the NaV of interest.
HEK293 cells stably expressing NaV1.3 are plated into 96-well microtiter plates. After an appropriate incubation period, the cells are stained with the voltage sensitive dyes CC2-DMPE/DiSBAC2(3) as follows.
2×CC2-DMPE=20 μM CC2-DMPE: 10 mM CC2-DMPE is vortexed with an equivalent volume of 10% pluronic, followed by vortexing in required amount of HBSS containing 10 mM HEPES. Each cell plate will require 5 mL of 2×CC2-DMPE. 50 μL of 2×CC2-DMPE is to wells containing washed cells, resulting in a 10 μM final staining concentration. The cells are stained for 30 minutes in the dark at RT.
2×DISBAC2(3) with ABSC1=6 μM DISBAC2(3) and 1 mM ABSC1: The required amount of 10 mM DISBAC2(3) is added to a 50 ml conical tube and mixed with 1 μL 10% pluronic for each mL of solution to be made and vortexed together. Then HBSS/HEPES is added to make up 2× solution. Finally, the ABSC1 is added.
The 2×DiSBAC2(3) solution can be used to solvate compound plates. Note that compound plates are made at 2× drug concentration. Wash stained plate again, leaving residual volume of 50 μL. Add 50 uL/well of the 2×DiSBAC2(3) w/ABSC1. Stain for 30 minutes in the dark at RT.
The electrical stimulation instrument and methods of use are described in ION Channel Assay Methods PCT/US01/21652, herein incorporated by reference. The instrument comprises a microtiter plate handler, an optical system for exciting the coumarin dye while simultaneously recording the coumarin and oxonol emissions, a waveform generator, a current- or voltage-controlled amplifier, and a device for inserting electrodes in well. Under integrated computer control, this instrument passes user-programmed electrical stimulus protocols to cells within the wells of the microtiter plate.
• 1. Insert or use electrodes into each well to be assayed. • 2. Use the current-controlled amplifier to deliver stimulation wave pulses for 3 s. Two seconds of pre-stimulus recording are performed to obtain the un-stimulated intensities. Five seconds of post-stimulation recording are performed to examine the relaxation to the resting state.
Data are analyzed and reported as normalized ratios of background-subtracted emission intensities measured in the 460 nm and 580 nm channels. Background intensities are then subtracted from each assay channel. […]
Target sequence in this assay (Q9NY46 whole entry): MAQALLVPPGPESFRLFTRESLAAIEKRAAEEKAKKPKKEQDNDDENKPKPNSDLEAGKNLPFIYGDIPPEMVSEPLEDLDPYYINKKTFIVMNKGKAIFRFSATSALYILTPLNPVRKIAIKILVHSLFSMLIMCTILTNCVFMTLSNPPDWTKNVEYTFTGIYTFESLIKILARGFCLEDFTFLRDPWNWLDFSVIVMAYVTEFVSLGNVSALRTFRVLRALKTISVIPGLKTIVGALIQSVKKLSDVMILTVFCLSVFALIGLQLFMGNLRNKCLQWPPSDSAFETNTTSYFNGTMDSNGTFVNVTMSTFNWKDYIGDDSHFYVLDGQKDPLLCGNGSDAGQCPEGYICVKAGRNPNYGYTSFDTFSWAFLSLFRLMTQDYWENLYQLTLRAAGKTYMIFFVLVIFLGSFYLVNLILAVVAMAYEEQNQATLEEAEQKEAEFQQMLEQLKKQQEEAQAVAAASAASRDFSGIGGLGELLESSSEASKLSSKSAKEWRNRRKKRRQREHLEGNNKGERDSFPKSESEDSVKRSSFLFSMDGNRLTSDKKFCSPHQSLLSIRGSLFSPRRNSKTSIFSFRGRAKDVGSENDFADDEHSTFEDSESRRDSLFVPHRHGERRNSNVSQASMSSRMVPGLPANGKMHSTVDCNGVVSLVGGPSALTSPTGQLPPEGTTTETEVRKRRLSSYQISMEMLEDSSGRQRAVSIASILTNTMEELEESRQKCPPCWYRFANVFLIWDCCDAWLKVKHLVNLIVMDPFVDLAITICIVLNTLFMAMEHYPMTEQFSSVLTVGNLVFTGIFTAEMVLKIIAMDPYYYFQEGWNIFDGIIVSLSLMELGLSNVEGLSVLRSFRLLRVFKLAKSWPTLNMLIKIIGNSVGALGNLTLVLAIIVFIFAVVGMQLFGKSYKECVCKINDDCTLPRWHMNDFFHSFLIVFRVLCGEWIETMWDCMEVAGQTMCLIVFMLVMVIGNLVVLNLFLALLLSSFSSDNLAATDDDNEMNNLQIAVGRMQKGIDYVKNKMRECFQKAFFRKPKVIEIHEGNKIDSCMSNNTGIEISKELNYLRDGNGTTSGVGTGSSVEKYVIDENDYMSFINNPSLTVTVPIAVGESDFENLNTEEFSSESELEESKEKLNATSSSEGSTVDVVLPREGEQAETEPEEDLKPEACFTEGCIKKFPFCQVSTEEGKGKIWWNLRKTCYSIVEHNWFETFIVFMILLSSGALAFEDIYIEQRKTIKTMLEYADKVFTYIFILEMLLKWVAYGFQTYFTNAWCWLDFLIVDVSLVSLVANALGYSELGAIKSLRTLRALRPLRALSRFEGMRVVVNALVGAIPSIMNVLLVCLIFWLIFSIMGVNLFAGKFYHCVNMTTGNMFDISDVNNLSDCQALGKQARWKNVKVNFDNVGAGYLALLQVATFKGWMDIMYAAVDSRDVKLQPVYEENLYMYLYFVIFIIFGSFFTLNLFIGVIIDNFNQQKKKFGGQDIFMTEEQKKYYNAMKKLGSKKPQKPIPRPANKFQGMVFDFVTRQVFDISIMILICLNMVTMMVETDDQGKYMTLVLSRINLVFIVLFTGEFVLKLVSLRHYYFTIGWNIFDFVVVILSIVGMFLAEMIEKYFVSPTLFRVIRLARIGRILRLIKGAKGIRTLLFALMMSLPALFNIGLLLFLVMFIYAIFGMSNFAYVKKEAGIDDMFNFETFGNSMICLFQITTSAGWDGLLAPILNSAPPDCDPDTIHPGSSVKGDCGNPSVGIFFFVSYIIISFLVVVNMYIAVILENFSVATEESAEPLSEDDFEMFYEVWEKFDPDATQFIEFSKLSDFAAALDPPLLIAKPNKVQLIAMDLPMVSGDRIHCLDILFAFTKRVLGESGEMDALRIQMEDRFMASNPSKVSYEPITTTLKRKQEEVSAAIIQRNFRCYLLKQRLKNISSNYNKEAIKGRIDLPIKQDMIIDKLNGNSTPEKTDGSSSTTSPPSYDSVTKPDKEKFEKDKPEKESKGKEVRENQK
For `O=C(NC1Cc2ccc(S(=O)(=O)Nc3nccs3)cc2C1)Oc1cccc(C(F)(F)F)c1` (stereo not shown) [Compound 1], the IC50 was less than 2000 nM.
`O=C(NC1Cc2ccc(S(=O)(=O)Nc3nccs3)cc2C1)Oc1ccc(Cl)cc1` (stereo not shown) [Compound 11] showed an IC50 of less than 2000 nM.

Same assay, conditions: NaV 1.3 channel; read-out: IC50
For `O=C(COc1ccc(Cl)cc1)NC1Cc2ccc(S(=O)(=O)Nc3nccs3)cc2C1` (stereo not shown) [Compound 2], the IC50 was less than 2000 nM.
`O=C(NC1Cc2ccc(S(=O)(=O)Nc3nccs3)cc2C1)c1cc(F)ccc1F` (stereo not shown) [Compound 3] showed an IC50 greater than 5000 nM.
Molecule `O=C(CCn1ccc2cc(Cl)ccc21)NC1Cc2ccc(S(=O)(=O)Nc3nccs3)cc2C1` (stereo not shown) [Compound 4, 3-(5-Chloro-indol-1-yl)-N-[5-(thiazol-2-ylsulfamoyl)-indan-2-yl]-propionamide] has an IC50 of less than 2000 nM.
In the case of `O=C(COc1ccc(F)c(Cl)c1)NC1Cc2ccc(S(=O)(=O)Nc3nccs3)cc2C1` (stereo not shown) [Compound 5], the IC50 is reported as less than 2000 nM.
`O=C(NC1Cc2ccc(S(=O)(=O)Nc3nccs3)cc2C1)c1ccc(F)cc1` (stereo not shown) [Compound 6, 4-Fluoro-N-[5-(thiazol-2-ylsulfamoyl)-indan-2-yl]-benzamide] gave an IC50 greater than 5000 nM.
With `O=C(NC1Cc2ccc(S(=O)(=O)Nc3nccs3)cc2C1)c1c(F)cc(F)cc1F` (stereo not shown) [Compound 7] the IC50 was greater than 5000 nM.
With `O=C(NC1Cc2ccc(S(=O)(=O)Nc3nccs3)cc2C1)c1ccc(Cl)c(Cl)c1` (stereo not shown) [Compound 8] the IC50 was 2000 to 5000 nM.
For `O=C(COc1ccccc1)NC1Cc2ccc(S(=O)(=O)Nc3nccs3)cc2C1` (stereo not shown) [Compound 9], the IC50 was greater than 5000 nM.
For `O=C(NC1Cc2ccc(S(=O)(=O)Nc3nccs3)cc2C1)c1ccc(C(F)(F)F)cc1` (stereo not shown) [Compound 10], the IC50 was greater than 5000 nM.
With `CC(C)(C)c1ccc(OCC(=O)NC2Cc3ccc(S(=O)(=O)Nc4nccs4)cc3C2)cc1` (stereo not shown) [Compound 12] the IC50 was less than 2000 nM.
In the case of `O=C(COc1ccc(F)cc1)NC1Cc2ccc(S(=O)(=O)Nc3nccs3)cc2C1` (stereo not shown) [Compound 13], the IC50 is reported as 2000 to 5000 nM.
`O=C(NC1Cc2ccc(S(=O)(=O)Nc3nccs3)cc2C1)c1ccccc1F` (stereo not shown) [Compound 14] showed an IC50 greater than 5000 nM.
In the case of `O=C(CCOc1ccccc1)NC1Cc2ccc(S(=O)(=O)Nc3nccs3)cc2C1` (stereo not shown) [Compound 15], the IC50 is reported as greater than 5000 nM.
`O=C(COc1cccc(Cl)c1)NC1Cc2ccc(S(=O)(=O)Nc3nccs3)cc2C1` (stereo not shown) [Compound 16, 2-(3-Chloro-phenoxy)-N-[5-(thiazol-2-ylsulfamoyl)-indan-2-yl]-acetamide] gave an IC50 of less than 2000 nM.
With `CC(C(=O)NC1Cc2ccc(S(=O)(=O)Nc3nccs3)cc2C1)n1ccc2ccccc21` (stereo not shown) [Compound 17, 2-Indol-1-yl-N-[5-(thiazol-2-ylsulfamoyl)-indan-2-yl]-propionamide] the IC50 was 2000 to 5000 nM.

Biological target: T1, NaV1.3
Assay: not given
Conditions: read-out: TTX IC50; cited from earlier work
Target sequence in this assay (Q9NY46 whole entry, looked up): as the sequence (Q9NY46 whole entry) above
In the case of `NC1=N[C@H](O)[C@H]2[C@H]3O[C@]4(O)O[C@@H]([C@@H](O)[C@@]2(N1)[C@@H]4O)[C@]3(O)CO` [TTX, tetrodotoxin], the IC50 is given as 15 nM.
